From patent publication US7160685B2, “Diagnostic reagents for human cytomegalovirus and methods of use” (priority 1996, dated 2007)
Where two headings read alike, the source gives them in different places. Where no end group is shown, it is not given here. The star is where a group is joined. Palmitoyl = CCCCCCCCCCCCCCCC(=O)*

Tests used:
[1] = test system: peptide-loaded T2 cells, EBVLCL targets infected with pp65Vac, and HCMV-infected fibroblasts; assay: lipidated peptides with and without IFA in transgenic HLA A2.1 mouse, CRA; type: in vivo; details: peptide together with PADRE, with versus without emulsification in IFA
Method: Either one or two palmitic acid moieties were attached to the amino terminus of the 495 peptide, and a series of immunization studies were conducted in the transgenic HLA A2.1 mouse.
Separate mice were immunized with unmodified pp65495-503, and either the monolipidated or dilipidated forms of the peptide together with the PADRE epitope. Because it has been previously shown that lipidated peptides will stimulate immunity without co-administration of Freund's adjuvant (H. Schild et al., Eur. J. Immunol. 21:2649–2654 (1991)), immunization of mice with and without emulsifying the peptides in IFA was compared. In a procedure similar to the procedure described in Example 9 above, twelve days post inoculation the mice were splenectomized and the spleen cell population was restimulated twice in vitro. The splenic effectors were then tested in a chromium release assay with peptide-loaded T2 cells, EBVLCL targets infected with pp65Vac, and HCMV-infected fibroblasts (D. J. Diamond et al., Blood 90 (5):1751–1767 (1997)). […] (See FIGS. 1–3)

[2] = target: HLA A*0209 (Homo sapiens, UniProt P04439, A260E/D140Y/D185E/D98H/E176V/E277Q/G131W/G231S/I119V/I121R/I166T/I218V/L300P/L318F/N151K/N90K/P208A/P217A/Q86G/Q94H/R138H/R169H/T345S)
Method: (§1) Twelve cell lines were subjected to chromium release assays in which they were pulsed with the 495 peptide (pp65495-503) nonamer, loaded with chromium-51, and incubated with two different HLA A*0201 restricted CTL which recognize the 495 peptide and HCMV. The specific cytotoxicity was calculated and is shown in tabular form below for the 1 μM and 1 nM concentrations of the 495 peptide.

[3] = test system: 495 peptide targets; details: after 14 weeks; 495 peptide + PADRE + IFA
[4] = target: HLA A*0205 (Homo sapiens, UniProt P04439, D140Y/D185E/D98H/E176V/E277Q/F33Y/G131W/G231S/I119L/I121R/I166T/I218V/L180W/L300P/L318F/N151K/N90K/P208A/P217A/Q67R/Q86G/Q94H/R138H/R169H/T345S)
Method: as §1

[5] = target: HLA A*0204 (Homo sapiens, UniProt P04439, D140Y/D185E/D98H/E176V/E277Q/G131W/G231S/I119V/I121M/I166T/I218V/L300P/L318F/N151K/N90K/P208A/P217A/Q86G/Q94H/R138H/R169H/T345S)
Method: as §1

[6] = target: HLA A*0207 (Homo sapiens, UniProt P04439, D140Y/D185E/D98H/E176V/E277Q/G131W/G231S/I119V/I121R/I166T/I218V/L300P/L318F/N151K/N90K/P208A/P217A/Q86G/Q94H/R138H/R169H/T345S/Y123C)
Method: as §1

[7] = target: HLA A*0210 (Homo sapiens, UniProt P04439, D140Y/D185E/D98H/E176V/E277Q/F33Y/G231S/I119V/I121R/I166T/I218V/L300P/L318F/N151K/N90K/P208A/P217A/Q86G/Q94H/R138H/R169H/T345S/Y123F)
Method: as §1

[8] = target: HLA A*0211 (Homo sapiens, UniProt P04439, D140Y/D185E/E176V/E277Q/G131W/G231S/I119V/I121R/I166T/I218V/L300P/L318F/N151K/N90K/P208A/P217A/Q86G/Q94H/R138H/R169H/T345S/T97I)
Method: as §1

[9] = target: HLA A*0202 (Homo sapiens, UniProt P04439, D140Y/D185E/D98H/E176V/E277Q/G131W/G231S/I119L/I121R/I166T/I218V/L180W/L300P/L318F/N151K/N90K/P208A/P217A/Q67R/Q86G/Q94H/R138H/R169H/T345S)
Method: as §1

[10] = target: HLA A*0217 (Homo sapiens, UniProt P04439, D140Y/D185E/D98H/E176V/E277Q/G131W/G231S/I119L/I121M/I166T/I218V/L300P/L318F/N151K/N90K/P208A/P217A/Q86G/Q94H/R138H/R169H/T345S/Y123F)
Method: as §1

[11] = target: HLA A*0206 (Homo sapiens, UniProt P04439, D140Y/D185E/D98H/E176V/E277Q/F33Y/G131W/G231S/I119V/I121R/I166T/I218V/L300P/L318F/N151K/N90K/P208A/P217A/Q86G/Q94H/R138H/R169H/T345S)
Method: as §1

[12] = test system: peptide loaded T2 cells; assay: immunization of HLA A2.1 transgenic mice, splenic effectors tested on peptide loaded T2 cells; type: in vivo, mouse; details: 50 μg peptide with 20 μg PADRE in IFA s.c., two in vitro restimulation cycles
From the text: A transgenic mouse model lacking prior HCMV exposure, the HLA A2.1 mouse (E. J. Bernhard et al., J. Exp. Med. 168:1157–1162 (1988)), was employed to test whether the 495 peptide could stimulate CTLs lacking prior virus exposure and function as a vaccine. These experiments involved in vitro analysis using mouse and human cell targets, either infected with viruses or primed with the peptide of SEQ ID NO:1 or a non-specific control peptide.
Three mice were immunized subcutaneously at the base of the tail with 50 μg of the 495 peptide (pp65495-503) or peptide p53149-157 from p53 (M. Theobald et al., Proc. Natl. Acad. Sci. U.S.A. 92:11993–11997 (1995)) together with 20 μg of the polyclonal helper T lymphocyte (HTL) peptide (PADRE; SEQ ID NO:29) (J. Alexander et al., Immunity. 1:751–761 (1994)) emulsified in IFA (Incomplete Freund's Adjuvant). After twelve days, spleens were removed from immunized mice, a splenic suspension was made, and the effector cells were restimulated for one week using p53149-157 or pp65495-503 peptide sensitized syngeneic lipopolysaccharide-treated splenic blast cells (P. A. Wentworth et al., Eur. J. Immunol. 26:97–101 (1996)). Thereafter, for subsequent in vitro stimulations, the stimulator cells were Jurkat A2.1 cells, prepared by mild acid treatment and subsequent loading of peptides (Z. Yu et al., Journal of Surgical Research 69:337–343 (1997)). […]

Compound: 1 PALMITIC ACID-KSS-NLVPMVATV-OH (Palmitoyl-KSSNLVPMVATV-OH; SMILES CCCCCCCCCCCCCCCC(=O)N[C@@H](CCCCN)C(=O)N[C@@H](CO)C(=O)N[C@@H](CO)C(=O)N[C@@H](CC(N)=O)C(=O)N[C@@H](CC(C)C)C(=O)N[C@H](C(=O)N1CCC[C@H]1C(=O)N[C@@H](CCSC)C(=O)N[C@H](C(=O)N[C@@H](C)C(=O)N[C@H](C(=O)N[C@H](C(=O)O)C(C)C)[C@@H](C)O)C(C)C)C(C)C) [SEQ ID NO:31]
- immune response induced (CRA of splenic effectors) [1]: weaker immune response

Compound: CSCC[C@H](NC(=O)[C@@H]1CCCN1C(=O)[C@@H](NC(=O)[C@H](CC(C)C)NC(=O)[C@@H](N)CC(N)=O)C(C)C)C(=O)N[C@H](C(=O)N[C@@H](C)C(=O)N[C@H](C(=O)N[C@H](C(=O)O)C(C)C)[C@@H](C)O)C(C)C [SEQ ID NO:1]
- specific cytotoxicity ([2]; A*0209, CTL 3-3F4, 1 nM): − (cytotoxicity less than 15%)
- specific cytotoxicity ([2]; A*0209, CTL 3-3F4, 1 μM): + (cytotoxicity greater than 30%)
- specific cytotoxicity ([2]; A*0209, CTL VB-57, 1 nM): − (cytotoxicity less than 15%)
- specific cytotoxicity ([2]; A*0209, CTL VB-57, 1 μM): + (cytotoxicity greater than 30%)
- Percent specific cytotoxicity (cytotoxicity of 495 peptide targets—cytotoxicity of p53 targets) [3]: 40%
- specific cytotoxicity ([4]; A*0205, CTL 3-3F4, 1 nM): − (cytotoxicity less than 15%)
- specific cytotoxicity ([4]; A*0205, CTL 3-3F4, 1 μM): + (cytotoxicity greater than 30%)
- specific cytotoxicity ([4]; A*0205, CTL VB-57, 1 nM): + (cytotoxicity greater than 30%)
- specific cytotoxicity ([4]; A*0205, CTL VB-57, 1 μM): + (cytotoxicity greater than 30%)
- specific cytotoxicity ([5]; A*0204, CTL 3-3F4, 1 nM): + (cytotoxicity greater than 30%)
- specific cytotoxicity ([5]; A*0204, CTL 3-3F4, 1 μM): + (cytotoxicity greater than 30%)
- specific cytotoxicity ([5]; A*0204, CTL VB-57, 1 nM): + (cytotoxicity greater than 30%)
- specific cytotoxicity ([5]; A*0204, CTL VB-57, 1 μM): + (cytotoxicity greater than 30%)
- specific cytotoxicity ([6]; A*0207, CTL 3-3F4, 1 nM): + (cytotoxicity greater than 30%)
- specific cytotoxicity ([6]; A*0207, CTL 3-3F4, 1 μM): + (cytotoxicity greater than 30%)
- specific cytotoxicity ([6]; A*0207, CTL VB-57, 1 nM): + (cytotoxicity greater than 30%)
- specific cytotoxicity ([6]; A*0207, CTL VB-57, 1 μM): + (cytotoxicity greater than 30%)
- specific cytotoxicity ([7]; A*0210, CTL 3-3F4, 1 nM): + (cytotoxicity greater than 30%)
- specific cytotoxicity ([7]; A*0210, CTL 3-3F4, 1 μM): + (cytotoxicity greater than 30%)
- specific cytotoxicity ([7]; A*0210, CTL VB-57, 1 nM): + (cytotoxicity greater than 30%)
- specific cytotoxicity ([7]; A*0210, CTL VB-57, 1 μM): + (cytotoxicity greater than 30%)
- specific cytotoxicity ([8]; A*0211, CTL 3-3F4, 1 nM): − (cytotoxicity less than 15%)
- specific cytotoxicity ([8]; A*0211, CTL 3-3F4, 1 μM): + (cytotoxicity greater than 30%)
- specific cytotoxicity ([8]; A*0211, CTL VB-57, 1 μM): + (cytotoxicity greater than 30%)
- specific cytotoxicity ([9]; A*0202, CTL 3-3F4, 1 nM): − (cytotoxicity less than 15%)
- specific cytotoxicity ([9]; A*0202, CTL 3-3F4, 1 μM): + (cytotoxicity greater than 30%)
- specific cytotoxicity ([9]; A*0202, CTL VB-57, 1 nM): − (cytotoxicity less than 15%)
- specific cytotoxicity ([9]; A*0202, CTL VB-57, 1 μM): + (cytotoxicity greater than 30%)
- specific cytotoxicity ([10]; A*0217, CTL 3-3F4, 1 nM): − (cytotoxicity less than 15%)
- specific cytotoxicity ([10]; A*0217, CTL 3-3F4, 1 μM): + (cytotoxicity greater than 30%)
- specific cytotoxicity ([10]; A*0217, CTL VB-57, 1 nM): + (cytotoxicity greater than 30%)
- specific cytotoxicity ([10]; A*0217, CTL VB-57, 1 μM): + (cytotoxicity greater than 30%)
- specific cytotoxicity ([11]; A*0206, CTL 3-3F4, 1 nM): + (cytotoxicity greater than 30%)
- specific cytotoxicity ([11]; A*0206, CTL 3-3F4, 1 μM): + (cytotoxicity greater than 30%)
- specific cytotoxicity ([11]; A*0206, CTL VB-57, 1 nM): + (cytotoxicity greater than 30%)
- specific cytotoxicity ([11]; A*0206, CTL VB-57, 1 μM): + (cytotoxicity greater than 30%)

Compound: KSS-NLVPMVATV-OH (KSSNLVPMVATV-OH) [SEQ ID NO:30]
- immune response induced (CRA of splenic effectors) [1]: no activity unless emulsified in IFA

Compound: p53149-157: peptide p53149-157 from human p53 which binds to HLA A*0201, control peptide (STPPPGTRV; UniProt P04637 149-157, looked up, fragment)
- recognition of T2 cells loaded with the immunizing peptide by murine splenic effectors [12]: substantial recognition
- recognition of T2 cells loaded with the non-immunizing peptide [12]: without recognition of the non-immunizing peptide
